# Where “and” joins values, the source holds several entries; their conditions need not be identical. Equal values may be shown once. Read-outs that look alike come from different tables or passages of the source.
# Tests used:
# mouse Nav1.4 = mouse Nav1.4 (Mus musculus, UniProt Q9ER60); experiment: cell-based; conditions: for IC50: PatchXpress, tonic block, mouse Nav1.4, read-out: PX mNav1.4 Tonic IC50; for mNav1.4/mNav1.7: ratio of PX tonic IC50, mouse Nav1.4 over mouse Nav1.7
# hNav1.7 = hNav1.7 (Homo sapiens, UniProt Q15858); experiment: cell-based; format: cell-based; conditions: read-out: PX hNav1.7 Tonic IC50
# mNav1.7 = mNav1.7 (Mus musculus, UniProt Q62205); experiment: cell-based; conditions: for IC50: PatchXpress, tonic block, mouse Nav1.7, read-out: PX mNav1.7 Tonic IC50; for mNav1.7/hNav1.7: ratio of PX tonic IC50, mouse Nav1.7 over human Nav1.7
# rNav1.7 = rNav1.7 (Rattus norvegicus, UniProt O08562); experiment: cell-based
# hNav1.6 = hNav1.6 (Homo sapiens, UniProt Q9UQD0); experiment: cell-based; format: cell-based; conditions: Table 15; for Nav1.6/Nav1.7: ratio of PX tonic IC50 values; for IC50: read-out: PX hNav1.6 Tonic IC50
# hNav1.4 = hNav1.4 (Homo sapiens, UniProt P35499); experiment: cell-based; format: cell-based; conditions: for IC50: PatchXpress, tonic block, read-out: PX hNav1.4 Tonic IC50; for Nav1.4/Nav1.7: ratio of PX tonic IC50 values
# hNav1.4, sequence (P35499 whole entry): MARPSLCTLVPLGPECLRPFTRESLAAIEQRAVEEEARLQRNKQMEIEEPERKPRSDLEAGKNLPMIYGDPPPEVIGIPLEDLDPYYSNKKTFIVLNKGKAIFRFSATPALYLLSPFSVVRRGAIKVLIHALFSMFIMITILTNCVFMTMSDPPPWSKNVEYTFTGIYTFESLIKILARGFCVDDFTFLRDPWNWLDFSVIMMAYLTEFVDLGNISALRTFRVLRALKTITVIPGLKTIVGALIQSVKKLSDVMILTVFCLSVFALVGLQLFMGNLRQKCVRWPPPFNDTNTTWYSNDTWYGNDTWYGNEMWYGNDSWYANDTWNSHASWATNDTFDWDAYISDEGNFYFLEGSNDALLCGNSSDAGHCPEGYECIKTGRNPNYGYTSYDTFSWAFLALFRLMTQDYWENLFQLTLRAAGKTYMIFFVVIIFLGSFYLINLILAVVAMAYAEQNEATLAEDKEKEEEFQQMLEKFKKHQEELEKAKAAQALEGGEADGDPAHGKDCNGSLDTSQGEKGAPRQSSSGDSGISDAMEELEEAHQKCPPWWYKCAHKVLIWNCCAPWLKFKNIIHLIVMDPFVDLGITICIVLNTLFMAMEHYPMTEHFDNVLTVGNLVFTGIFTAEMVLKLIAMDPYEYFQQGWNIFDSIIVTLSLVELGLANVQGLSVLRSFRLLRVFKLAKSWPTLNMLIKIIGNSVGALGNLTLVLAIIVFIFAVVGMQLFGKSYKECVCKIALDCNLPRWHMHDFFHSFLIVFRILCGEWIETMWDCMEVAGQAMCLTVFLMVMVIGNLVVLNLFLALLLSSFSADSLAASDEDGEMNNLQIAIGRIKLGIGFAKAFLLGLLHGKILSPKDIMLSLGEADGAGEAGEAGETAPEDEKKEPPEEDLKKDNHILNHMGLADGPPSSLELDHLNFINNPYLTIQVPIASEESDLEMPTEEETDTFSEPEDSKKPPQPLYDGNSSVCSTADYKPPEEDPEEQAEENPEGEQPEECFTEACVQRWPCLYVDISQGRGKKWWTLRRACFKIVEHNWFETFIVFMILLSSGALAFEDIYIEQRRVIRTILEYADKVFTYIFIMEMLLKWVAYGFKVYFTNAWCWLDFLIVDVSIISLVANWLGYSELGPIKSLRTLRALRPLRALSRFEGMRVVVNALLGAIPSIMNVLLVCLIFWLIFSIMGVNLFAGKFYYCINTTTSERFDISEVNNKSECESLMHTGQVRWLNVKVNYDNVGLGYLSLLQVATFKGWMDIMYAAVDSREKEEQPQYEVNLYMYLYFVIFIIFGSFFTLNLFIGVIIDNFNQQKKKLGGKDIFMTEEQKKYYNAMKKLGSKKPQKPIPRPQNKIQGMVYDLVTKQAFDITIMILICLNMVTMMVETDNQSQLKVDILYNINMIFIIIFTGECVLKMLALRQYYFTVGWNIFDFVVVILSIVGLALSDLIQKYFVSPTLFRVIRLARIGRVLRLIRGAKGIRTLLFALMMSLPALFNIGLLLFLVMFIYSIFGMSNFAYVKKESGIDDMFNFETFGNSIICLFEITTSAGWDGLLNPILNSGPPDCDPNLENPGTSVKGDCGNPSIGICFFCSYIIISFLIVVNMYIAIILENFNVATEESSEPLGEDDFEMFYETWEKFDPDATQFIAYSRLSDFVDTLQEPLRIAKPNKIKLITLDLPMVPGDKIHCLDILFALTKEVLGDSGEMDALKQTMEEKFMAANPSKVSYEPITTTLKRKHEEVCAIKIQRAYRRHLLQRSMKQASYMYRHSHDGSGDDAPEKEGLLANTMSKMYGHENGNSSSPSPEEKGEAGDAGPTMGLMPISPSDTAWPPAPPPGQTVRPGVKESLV
# [1] = tested on: TTX-sensitive Nav channels in mouse DRG neuron; conditions: for block of TTX-sensitive Nav current: C57 Black 6 mouse DRG neuron
# hNav1.5 = hNav1.5 (Homo sapiens, UniProt Q14524); experiment: cell-based; conditions: for Nav1.5/Nav1.7: ratio of PX tonic IC50 values
# [2] = PatchXpress, tonic block, human Nav1.7
# [3] = Table 12, PatchXpress, tonic block
# mouse Nav1.4, sequence (Q9ER60 whole entry): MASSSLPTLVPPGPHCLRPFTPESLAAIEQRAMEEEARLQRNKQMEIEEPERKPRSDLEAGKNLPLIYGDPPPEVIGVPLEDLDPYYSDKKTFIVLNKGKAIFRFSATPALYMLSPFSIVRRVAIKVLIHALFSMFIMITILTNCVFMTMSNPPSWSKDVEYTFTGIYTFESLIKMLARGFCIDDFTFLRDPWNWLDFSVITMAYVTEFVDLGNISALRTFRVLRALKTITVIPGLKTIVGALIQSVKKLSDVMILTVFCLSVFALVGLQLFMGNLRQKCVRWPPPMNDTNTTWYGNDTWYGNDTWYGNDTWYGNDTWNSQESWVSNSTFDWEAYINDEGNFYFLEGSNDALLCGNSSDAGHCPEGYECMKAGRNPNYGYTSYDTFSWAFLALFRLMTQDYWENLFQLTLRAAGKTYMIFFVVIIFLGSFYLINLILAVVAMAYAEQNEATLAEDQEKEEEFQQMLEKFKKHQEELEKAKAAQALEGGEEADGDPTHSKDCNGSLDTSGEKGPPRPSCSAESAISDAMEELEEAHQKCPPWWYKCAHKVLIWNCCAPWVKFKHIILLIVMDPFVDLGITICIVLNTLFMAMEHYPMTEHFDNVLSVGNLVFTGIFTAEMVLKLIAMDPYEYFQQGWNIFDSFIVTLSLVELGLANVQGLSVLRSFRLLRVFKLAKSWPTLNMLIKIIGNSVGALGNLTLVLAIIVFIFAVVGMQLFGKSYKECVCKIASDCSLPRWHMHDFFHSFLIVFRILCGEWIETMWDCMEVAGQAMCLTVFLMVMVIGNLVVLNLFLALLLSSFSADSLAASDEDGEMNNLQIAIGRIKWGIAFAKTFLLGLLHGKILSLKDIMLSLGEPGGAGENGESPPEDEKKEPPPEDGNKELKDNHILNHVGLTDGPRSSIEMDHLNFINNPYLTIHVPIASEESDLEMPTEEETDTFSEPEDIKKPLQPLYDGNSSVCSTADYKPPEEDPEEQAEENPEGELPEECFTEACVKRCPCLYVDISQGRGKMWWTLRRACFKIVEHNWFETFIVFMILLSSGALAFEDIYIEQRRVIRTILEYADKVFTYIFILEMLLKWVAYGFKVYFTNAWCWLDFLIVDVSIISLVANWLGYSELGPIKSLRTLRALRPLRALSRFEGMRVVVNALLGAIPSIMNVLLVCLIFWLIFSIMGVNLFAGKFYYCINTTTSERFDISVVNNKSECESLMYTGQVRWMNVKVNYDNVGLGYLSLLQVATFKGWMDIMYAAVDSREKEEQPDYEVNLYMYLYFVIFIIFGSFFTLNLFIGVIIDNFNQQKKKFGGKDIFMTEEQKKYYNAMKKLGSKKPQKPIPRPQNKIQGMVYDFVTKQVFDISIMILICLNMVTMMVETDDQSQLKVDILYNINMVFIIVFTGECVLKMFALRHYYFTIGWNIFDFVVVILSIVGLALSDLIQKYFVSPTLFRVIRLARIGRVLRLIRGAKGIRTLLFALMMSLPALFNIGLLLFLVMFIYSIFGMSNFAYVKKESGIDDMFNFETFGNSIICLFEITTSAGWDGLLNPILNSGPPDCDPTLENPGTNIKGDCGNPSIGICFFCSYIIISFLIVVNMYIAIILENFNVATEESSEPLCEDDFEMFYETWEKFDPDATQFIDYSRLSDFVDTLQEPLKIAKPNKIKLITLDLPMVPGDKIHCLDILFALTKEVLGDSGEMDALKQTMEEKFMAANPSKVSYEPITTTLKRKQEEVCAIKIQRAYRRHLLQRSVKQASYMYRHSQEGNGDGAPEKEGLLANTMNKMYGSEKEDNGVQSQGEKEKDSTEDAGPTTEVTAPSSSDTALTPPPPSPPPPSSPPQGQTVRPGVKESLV
Compound,IC50 (mouse Nav1.4),IC50 (hNav1.7; [2]),IC50 (mNav1.7),mNav1.7/hNav1.7 (mNav1.7),Nav1.6/Nav1.7 (hNav1.6),IC50 (hNav1.6),IC50 (hNav1.4; Table 12),IC50 [1],other results
CCCC[C@@H]1NC(=O)[C@H](Cc2c[nH]c3ccccc23)NC(=O)[C@H](CCCCN)NC(=O)[C@H](CCC(N)=O)NC(=O)[C@@H](NC(=O)[C@H](Cc2ccc(O)cc2)NC(=O)[C@@H](N)CC(C)C)CSSC[C@@H]2NC(=O)[C@@H]3CSSC[C@@H](C(=O)N[C@@H](CCCNC(=N)N)C(=O)N[C@@H](CCCCN)C(=O)N[C@H](C(=O)N[C@H](C(N)=O)[C@@H](C)CC)[C@@H](C)CC)NC(=O)[C@H](Cc4c[nH]c5ccccc45)NC(=O)[C@H](CC(C)C)NC(=O)[C@H](CCCCN)NC(=O)[C@H](CSSC[C@H](NC(=O)[C@H]([C@@H](C)O)NC(=O)[C@H](Cc4c[nH]c5ccccc45)NC1=O)C(=O)N[C@@H](CC(=O)O)C(=O)N[C@@H](CO)C(=O)N[C@@H](CCCCN)C(=O)N[C@@H](CCCNC(=N)N)C(=O)N[C@@H](C)C(=O)N3)NC(=O)[C@H](CCCNC(=N)N)NC(=O)[C@H](CC(C)C)NC(=O)CNC(=O)[C@H](CCC(=O)O)NC2=O [Leu-[Nle6]JzTx-V(1-29)],1.8 nM,0.13 nM,1.33 nM,10.22,,,,,mNav1.4/mNav1.7 (mouse Nav1.4): 1.4
CCCC[C@@H]1NC(=O)[C@H](Cc2c[nH]c3ccccc23)NC(=O)[C@H](CCCCN)NC(=O)[C@H](CCC(N)=O)NC(=O)[C@@H](NC(=O)[C@H](Cc2ccc(O)cc2)NC(=O)[C@@H](N)CCC)CSSC[C@@H]2NC(=O)[C@@H]3CSSC[C@@H](C(=O)N[C@@H](CCCNC(=N)N)C(=O)N[C@@H](CCCCN)C(=O)N[C@H](C(=O)N[C@H](C(N)=O)[C@@H](C)CC)[C@@H](C)CC)NC(=O)[C@H](Cc4c[nH]c5ccccc45)NC(=O)[C@H](CC(C)C)NC(=O)[C@H](CCCCN)NC(=O)[C@H](CSSC[C@H](NC(=O)[C@H]([C@@H](C)O)NC(=O)[C@H](Cc4c[nH]c5ccccc45)NC1=O)C(=O)N[C@@H](CC(=O)O)C(=O)N[C@@H](CO)C(=O)N[C@@H](CCCCN)C(=O)N[C@@H](CCCNC(=N)N)C(=O)N[C@@H](C)C(=O)N3)NC(=O)[C@H](CCCNC(=N)N)NC(=O)[C@H](CC(C)C)NC(=O)CNC(=O)[C@H](CCC(=O)O)NC2=O [Nva-[Nle6]JzTx-V(1-29)],4.54 nM,0.82 nM,,,,,,,
C#CC[C@H](N)C(=O)N[C@@H](Cc1ccc(O)cc1)C(=O)N[C@H]1CSSC[C@@H]2NC(=O)[C@@H]3CSSC[C@@H](C(=O)N[C@@H](CCCNC(=N)N)C(=O)N[C@@H](CCCCN)C(=O)N[C@H](C(=O)N[C@@H](Cc4c[nH]c5ccccc45)C(N)=O)[C@@H](C)CC)NC(=O)[C@H](Cc4c[nH]c5ccccc45)NC(=O)[C@H](CC(C)C)NC(=O)[C@H](CCCCN)NC(=O)[C@H](CSSC[C@H](NC(=O)[C@H]([C@@H](C)O)NC(=O)[C@H](Cc4c[nH]c5ccccc45)NC(=O)[C@H](CCCC)NC(=O)[C@H](Cc4c[nH]c5ccccc45)NC(=O)[C@H](CCCCN)NC(=O)[C@H](CCC(N)=O)NC1=O)C(=O)N[C@@H](CC(=O)O)C(=O)N[C@@H](CO)C(=O)N[C@@H](CCCCN)C(=O)N[C@@H](CCCNC(=N)N)C(=O)N[C@@H](C)C(=O)N3)NC(=O)[C@H](CCCNC(=N)N)NC(=O)[C@H](CC(C)C)NC(=O)CNC(=O)[C@H](CCC(=O)O)NC2=O [Pra-[Nle6; Trp29]JzTx-V(1-29)],9.67 nM,,10.7 nM,2.23,,,,,mNav1.4/mNav1.7 (mouse Nav1.4): 0.91
C#CC[C@@H]1NC(=O)[C@H](CC(=O)O)NC(=O)[C@@H]2CSSC[C@@H]3NC(=O)[C@H](CCCNC(=N)N)NC(=O)[C@H](CC(C)C)NC(=O)CNC(=O)[C@H](CCC(=O)O)NC(=O)[C@H](CSSC[C@H](NC(=O)[C@@H](N)Cc4ccc(O)cc4)C(=O)N[C@@H](CCC(N)=O)C(=O)N[C@@H](CCCCN)C(=O)N[C@@H](Cc4c[nH]c5ccccc45)C(=O)N[C@@H](CCCC)C(=O)N[C@@H](Cc4c[nH]c5ccccc45)C(=O)N[C@@H]([C@@H](C)O)C(=O)N2)NC(=O)[C@H](CSSC[C@@H](C(=O)N[C@@H](CCCNC(=N)N)C(=O)N[C@@H](CCCCN)C(=O)N[C@@H](CCC(=O)O)C(=O)N[C@H](C(N)=O)[C@@H](C)CC)NC(=O)[C@H](Cc2c[nH]c4ccccc24)NC(=O)[C@H](CC(C)C)NC(=O)[C@H](CCCCN)NC3=O)NC(=O)[C@H](C)NC(=O)[C@H](CCCNC(=N)N)NC(=O)[C@H](CCCCN)NC1=O [[Nle6; Pra11; Glu28]JzTx-V(1-29)],,0.473 nM,3.69 nM,7.81,,,,,"IC50 (rNav1.7; PatchXpress, tonic block, rat Nav1.7, read-out: PX rNav1.7 Tonic IC50): 3.83 nM; rNav1.7/hNav1.7 (rNav1.7; ratio of PX tonic IC50, rat Nav1.7 over human Nav1.7): 8.10"
C#CC[C@H](N)C(=O)NCCCC[C@@H]1NC(=O)[C@H](CCCNC(=N)N)NC(=O)[C@H](CCCCN)NC(=O)[C@H](CO)NC(=O)[C@H](CC(=O)O)NC(=O)[C@@H]2CSSC[C@@H]3NC(=O)[C@H](CCCNC(=N)N)NC(=O)[C@H](CC(C)C)NC(=O)CNC(=O)[C@H](CCC(=O)O)NC(=O)[C@H](CSSC[C@H](NC(=O)[C@H](Cc4ccc(O)cc4)NC(=O)[C@@H](N)CC#N)C(=O)N[C@@H](CCC(N)=O)C(=O)N[C@@H](CCCCN)C(=O)N[C@@H](Cc4c[nH]c5ccccc45)C(=O)N[C@@H](CCCC)C(=O)N[C@@H](Cc4c[nH]c5ccccc45)C(=O)N[C@@H]([C@@H](C)O)C(=O)N2)NC(=O)[C@H](CSSC[C@@H](C(=O)N[C@@H](CCCNC(=N)N)C(=O)N[C@@H](CCCCN)C(=O)N[C@@H](CCC(=O)O)C(=O)N[C@H](C(N)=O)[C@@H](C)CC)NC(=O)[C@H](Cc2c[nH]c4ccccc24)NC(=O)[C@H](CC(C)C)NC(=O)[C@H](CCCCN)NC3=O)NC1=O [compound 392],,,,,157,250 nM,110 nM,46.6 nM,IC50 (hNav1.7; Table 15): 1.59 nM; fold less potent than JzTx-V in inhibition of TTX-sensitive current [1]: about 3 fold; Nav1.5/Nav1.7 (hNav1.5; Table 12): 659 and 615 and 841
CCCC[C@@H]1NC(=O)[C@H](Cc2c[nH]c3ccccc23)NC(=O)[C@H](CCCCN)NC(=O)[C@H](CCC(N)=O)NC(=O)[C@@H](NC(=O)[C@H](Cc2ccc(O)cc2)NC(=O)[C@@H](N)CC#N)CSSC[C@@H]2NC(=O)[C@@H]3CSSC[C@@H](C(=O)N[C@@H](CCCNC(=N)N)C(=O)N[C@@H](CCCCN)C(=O)N[C@@H](CCC(=O)O)C(=O)N[C@H](C(N)=O)[C@@H](C)CC)NC(=O)[C@H](Cc4c[nH]c5ccccc45)NC(=O)[C@H](CC(C)C)NC(=O)[C@H](CCCCN)NC(=O)[C@H](CSSC[C@H](NC(=O)[C@H]([C@@H](C)O)NC(=O)[C@H](Cc4c[nH]c5ccccc45)NC1=O)C(=O)N[C@@H](CC(=O)O)C(=O)N[C@@H](CO)C(=O)N[C@@H](CCCCN)C(=O)N[C@@H](CCCNC(=N)N)C(=O)N[C@@H](C)C(=O)N3)NC(=O)[C@H](CCCNC(=N)N)NC(=O)[C@H](CC(C)C)NC(=O)CNC(=O)[C@H](Cc1cn(CCCOCCOCCOCCOCCOCCOCCOCCOCCOCCOCCN)nn1)NC2=O [compound 443],,,,,,,,35.2 nM,Nav1.4/Nav1.7 (hNav1.4; Table 13): 31; block of TTX-sensitive Nav current ([1]; 300 nM): over 75%; Nav1.5/Nav1.7 (hNav1.5; Table 13): 236
C#CC[C@H](N)C(=O)N[C@@H](Cc1ccc(O)cc1)C(=O)N[C@H]1CSSC[C@@H]2NC(=O)[C@@H]3CSSC[C@@H](C(=O)N[C@@H](CCCNC(=N)N)C(=O)N[C@@H](CCCCN)C(=O)N[C@@H](CCC(=O)O)C(=O)N[C@H](C(N)=O)[C@@H](C)CC)NC(=O)[C@H](Cc4c[nH]c5ccccc45)NC(=O)[C@H](CC(C)C)NC(=O)[C@H](CCCCN)NC(=O)[C@H](CSSC[C@H](NC(=O)[C@H]([C@@H](C)O)NC(=O)[C@H](Cc4c[nH]c5ccccc45)NC(=O)[C@H](CCCC)NC(=O)[C@H](Cc4c[nH]c5ccccc45)NC(=O)[C@H](CCCCN)NC(=O)[C@H](CCC(N)=O)NC1=O)C(=O)N[C@@H](CC(=O)O)C(=O)N[C@@H](CO)C(=O)N[C@@H](CCC(=O)O)C(=O)N[C@@H](CCCNC(=N)N)C(=O)N[C@@H](C)C(=O)N3)NC(=O)[C@H](CCCNC(=N)N)NC(=O)[C@H](CC(C)C)NC(=O)CNC(=O)[C@H](CCC(=O)O)NC2=O [compound 715],,,,,508,877 nM,811 nM,144 nM,"Nav1.4/Nav1.7 (hNav1.4; Table 12): 470; IC50 (hNav1.7; [3]): 1.73 nM; block of TTX-sensitive Nav current ([1]; 1000 nM): approximately 90%; IC50 (hNav1.5; Table 12, PatchXpress, tonic block, read-out: PX hNav1.5 Tonic IC50): > 10000 nM; Nav1.5/Nav1.7 (hNav1.5; Table 12): >5794"
C#CC[C@H](N)C(=O)N[C@@H](Cc1ccc(O)cc1)C(=O)N[C@H]1CSSC[C@@H]2NC(=O)[C@@H]3CSSC[C@@H](C(=O)N[C@@H](CCCNC(=N)N)C(=O)N[C@@H](CCCCN)C(=O)N[C@@H](CCC(=O)O)C(=O)N[C@H](C(N)=O)[C@@H](C)CC)NC(=O)[C@H](Cc4c[nH]c5ccccc45)NC(=O)[C@H](CC(C)C)NC(=O)[C@H](CCCCN)NC(=O)[C@H](CSSC[C@H](NC(=O)[C@H]([C@@H](C)O)NC(=O)[C@H](Cc4c[nH]c5ccccc45)NC(=O)[C@H](CCCC)NC(=O)[C@H](Cc4c[nH]c5ccccc45)NC(=O)[C@H](CCCCN)NC(=O)[C@H](CCC(N)=O)NC1=O)C(=O)N[C@@H](CC(=O)O)C(=O)N[C@@H](CO)C(=O)N[C@@H](CCCCN)C(=O)N[C@@H](CCCNC(=N)N)C(=O)N[C@@H](CCC(=O)O)C(=O)N3)NC(=O)[C@H](CCCNC(=N)N)NC(=O)[C@H](CC(C)C)NC(=O)CNC(=O)[C@H](CCC(=O)O)NC2=O [compound 717],,,,,2558,2490 nM,325 nM,99.8 nM,Nav1.4/Nav1.7 (hNav1.4; Table 12): 333; IC50 (hNav1.7; [3]): 0.975 nM; block of TTX-sensitive Nav current ([1]; 1000 nM): approximately 90%
